The source of these data is PMC10754118, “Lipophilic Nucleoside Triphosphate Prodrugs of Anti‐HIV Active Nucleoside Analogs as Potential Antiviral Compounds” (Advanced Science, 2023).

Series [1] can be described thus: in vitro. As to conditions: human, CEM/0 cells (wild-type CD4+ T-cells). How it is done: All TriPPPro‐compounds 10 and 20, as well as their parent nucleosides and the corresponding NTPs, were evaluated for their antiviral activity (expressed as EC50 values) against HIV‐1 (wild‐type CEM/0 cells) and HIV‐2 (wild‐type CEM/0 cells and thymidine kinase‐deficient (CEM/TK^−) cells) with concomitant determination of cytotoxicity in the same cell line (Table 3 ).

A short description of series [2]: in vitro. As to conditions: human. The method, then: The hydrolysis properties of TriPPPro‐compounds 10 and 20 were evaluated in phosphate buffer saline (PBS, pH 7.3), pig liver esterase (PLE) or CEM/0 cell extracts. In both cases, hydrolysis products were analyzed by means of analytical RP18‐HPLC and the hydrolysis half‐lives (Table 1 , t1/2 ) of TriPPPro‐compounds 10 and 20 were calculated after complete consumption of the starting materials.
The hydrolysis of TriPPPro‐compounds 10 and 20 was carried out with CEM/0 cell extracts as well. […]
Part 6. Enzyme-Catalyzed Hydrolysis of TriPPPro-compounds 10 and 20 in CEM Cell […]
First prepare 3.0 mM hydrolysis solutions of Tri PPPro-compounds 10 and 20 in DMSO and H2O: 21 µL stock solution (50 mM in DMSO) and 154 µL DMSO, and 175 µL Milli-Q water. Three-twelve different samples (20 µL 3.0 mM hydrolysis solutions) were prepared in 2 mL Eppendorf® vials. Then, aliquots of 50 µL human CEM cell extracts were added to these samples and the reaction was started. The samples were incubated at 37 °C in a thermomixer for different time periods. The reaction was stopped by addition of 150 µL MeOH and kept on ice for 5 min. After centrifugation at 14,000 rpm for 12 min, the supernatants were filtered (Chromafil RC-20/15 MS, 0.2 μm) and stored in liquid nitrogen. When testing, aliquots of 60 µL (injection volume) were analyzed by analytical HPLC (HPLC Method). The calculation of t1/2 was obtained using Origin again.
(§1) Part 7. Hydrolysis of TriPPPro-compounds 10 and 20 in human plasma.
µL 3.0 mM hydrolysis solutions) were prepared in 2 mL Eppendorf® vials.

The nature of series [3]: Chemical hydrolysis in phosphate buffer saline (PBS, pH 7.3). The class given is physicochemical. As to conditions: PBS pH 7.3, 37 °C, read-out: PBS pH 7.3 t 1/2 (converted). How it is done:
(§2) Part 4. Chemical Hydrolysis of TriPPPro-compounds 10 and 20.
Second prepare 1.9 mM hydrolysis […]
(§3) Then, aliquots of 50 µL human

Another series has as its system HIV‐1 [HE]. The series is described as follows: Anti-HIV activity, HIV-1 in wild-type CEM/0 cells. In kind it is cell-based. As to conditions: Human immunodeficiency virus 1, CCRF-CEM; wild-type CEM/0 cells, mean ±SD n = 2–3; read-out: Antiviral activity CEM/0 HIV‐1 [HE] EC50.
The test system of another series is pig liver esterase (PLE). Put plainly: Hydrolysis with pig liver esterase (PLE). In kind it is in vitro ADME. As to conditions: pig liver esterase (PLE) in PBS, PLE in PBS pH 7.3, 37 °C, read-out: PLE t 1/2 (converted).
Description: Next, TriPPPro‐compounds 10 and 20 were exposed to PLE in PBS (pH 7.3) and the half‐lives of TriPPPro‐compounds 10 and 20 are listed in Table 1. […] In contrast, the cleavage of the AB (C4) masking group in TriPPPro‐compounds 10by–hy and 10bz–hz was triggered by ester hydrolysis and yielded the corresponding γ‐alkylated nucleoside triphosphate derivatives 20 (Figure 3B,D) and 21 (Figures S17 and S18, Supporting Information), respectively. […] Moreover, a very small amount of NDPs was observed, probably due to a reaction involving a nucleophilic reaction at the γ‐phosphate or γ‐phosphonate moiety (pathways d and f, Scheme 5). […]
as §2
Second prepare 1.9 mM hydrolysis
Part 5. Hydrolysis of TriPPPro-compounds 10 and 20 with PLE .
Second, 125 µL DMSO and 833 µL
62.5 µL of PLE solution in PBS (100
mixture was stored in the freezer (- 30 °C).
by analytical HPLC (HPLC Method).
similar to that for the chemical hydrolysis studies. […]
as §3

A further series has as its system HIV‐2 [ROD]. Put plainly: Anti-HIV activity, HIV-2 in wild-type CEM/0 cells. The class given is cell-based. The conditions noted are these: Human immunodeficiency virus 2, CCRF-CEM; wild-type CEM/0 cells, mean ±SD n = 2–3; read-out: Antiviral activity CEM/0 HIV‐2 [ROD] EC50. The method, then: (§4) Part 9. Anti-HIV activity assay.
(§5) The produce was used as previously reported. 5 Inhibition of HIV-1(IIIB)- and HIV-2(ROD)-induced cytopathogenicity in wild-type CEM/0 and thymidine kinase-deficient CEM/TK– cell cultures was measured in […]
(§6) containing appropriate dilutions of the test compounds. After 4−5 days of incubation at 37 °C in a CO2-controlled humidified atmosphere, CEM giant (syncytium) cell formation was examined microscopically. The […]
(§7) giant cell formation by 50%.
(§8) Part 10. Primer-extension assays. […]

The subject of a further series is HIV‐2 [ROD)]. The series is described as follows: Anti-HIV activity, HIV-2 in thymidine kinase-deficient CEM/TK^− cells. The class given is cell-based. As to conditions: Human immunodeficiency virus 2, CEM-TK(-), thymidine kinase-deficient CEM/TK^− cells, mean ±SD n = 2–3; read-out: Antiviral activity CEM/TK^− HIV‐2 [ROD)] EC50. How it is done:
as §4, §5, §6, §7, §8

Series [4] can be described thus: in vitro. The conditions noted are these: human, plasma. How it is done: First prepare 50 mM solutions of TriPPPro-compounds 10 and 20 in DMSO. […]
First prepare 3.0 mM hydrolysis solutions of Tri PPPro-compounds 10 and 20 in DMSO and H2O: 21 µL stock solution (50 mM in DMSO) and 154 µL DMSO, and 175 µL Milli-Q water. Three-twelve different samples (20 […]
The calculation of t1/2 was obtained using Origin again.
as §1
µL 3.0 mM hydrolysis solutions) were prepared in 2 mL Eppendorf® vials. Then, aliquots of 50 µL human Plasma (Heparin or Citrate) were added to these samples and the reaction was started. The samples were […]
incubated at 37 °C in a thermomixer for different time periods. The reaction was stopped by addition of 150 µL MeOH and kept on ice for 5 min. After centrifugation at 14,000 rpm for 22 min, the supernatants were filtered (Chromafil RC-20/15 MS, 0.2 μm) and stored in liquid nitrogen. When testing, aliquots of 25 0r 30 µL (injection volume) were analyzed by analytical HPLC (HPLC Method). The calculation of t1/2 was obtained using Origin […]
Part 8. Preparation of cell extracts and human plasma. […]

Structures are written as SMILES.

As a reminder, the CC50 is the concentration giving 50% cytotoxicity. Read a low CC50 as greater toxicity to the cells. Compound `CCCCCCCCCCCCCCCCCCOP(=O)(O)OP(=O)(O)OP(=O)(O)OC[C@H]1O[C@@H](n2cc(/C=C/Br)c(=O)[nH]c2=O)C[C@@H]1O` [20g] yielded a CC50 in “in vitro [1]” of over 100 µM. The same compound gave a half-life at 0.86 mM in “in vitro [2]” of over 20 h. The half-life at 1.9 mM in series [3] was over 83.3 days. In addition, the EC50 in the series with HIV‐1 [HE] was over 10 µM; with HIV‐2 [ROD], over 10 µM; in the series with HIV‐2 [ROD)], 15.7 ± 0.98 µM. Also, in the series on pig liver esterase (PLE), the half-life at 0.45 mM was over 150 h.

For the compound `CCCCCCCCCCCCCCCCCCOP(=O)(O)OP(=O)(O)OP(=O)(O)OC[C@H]1O[C@@H](n2cc(Cl)c(=O)[nH]c2=O)C[C@@H]1F` [20d], the CC50 in the series “in vitro [1]” was over 100 µM. The half-life at 0.86 mM in “in vitro [2]” was over 20 h. The half-life at 1.9 mM in series [3] was over 83.3 days. Besides, the EC50 came out at 3.14 ± 2.93 µM in the series on HIV‐1 [HE], 2.24 ± 0.65 µM in the series with HIV‐2 [ROD] and 62.1 µM in the series on HIV‐2 [ROD)]. The half-life at 0.45 mM in the series with pig liver esterase (PLE) is over 150 h.

Regarding `CCCCCCCCCCCCCCCCCCOP(=O)(OCc1ccc(OC(=O)CCCC)cc1)OP(=O)(O)OP(=O)(O)OC[C@@H]1O[C@H](n2cc(F)c(N)nc2=O)CS1` (stereo partly shown) [10cy, γ‐(AB‐C4;alkyl‐C18)‐FTCTP], the CC50 in the series “in vitro [1]” is 51.9 µM. In the series “in vitro [2]”, this compound had a half-life at 0.86 mM of 3.4 h. Also, the half-life at 1.9 mM in series [3] is 10.5 days. Also, the EC50 came to 0.14 ± 0.065 µM with HIV‐1 [HE], 0.18 ± 0.15 µM in the series on HIV‐2 [ROD] and 0.062 ± 0.059 µM in the series on HIV‐2 [ROD)]. For the same compound, the half-life at 0.45 mM in the series with pig liver esterase (PLE) was 0.24 h.

As to `CCCCCCCCCCCCCCCCCCOP(=O)(OCCCC)OP(=O)(O)OP(=O)(O)OC[C@@H]1O[C@H](n2cc(F)c(N)nc2=O)CS1` (stereo partly shown) [10cv, γ‐(C4;C18)‐FTCTP], the CC50 in “in vitro [1]” amounted to 51.2 ± 7.7 µM. Also, the half-life at 0.86 mM in “in vitro [2]” is over 10 h. In series [3], the half-life at 1.9 mM is over 83.3 days. Further, the EC50 came out at 0.039 ± 0.035 µM in the series on HIV‐1 [HE], 0.074 ± 0.027 µM in the series with HIV‐2 [ROD] and 0.0032 µM with HIV‐2 [ROD)]. Moreover, the half-life at 0.45 mM in the series with pig liver esterase (PLE) was over 150 h.

For `CCCCCCCCCCCCCCCCCCOP(=O)(OCc1ccc(OC(=O)CCCC)cc1)OP(=O)(O)OP(=O)(O)OC[C@H]1O[C@@H](n2cc(/C=C/Br)c(=O)[nH]c2=O)C[C@@H]1O` (stereo partly shown) [10gy], in the series “in vitro [1]”, the CC50 was 52.1 µM. In series [3], the half-life at 1.9 mM is 25 days. Also, the values for the EC50 in the series with HIV‐1 [HE], in the series on HIV‐2 [ROD] and with HIV‐2 [ROD)] were 8.57 ± 5.02 µM, 2.87 ± 1.72 µM and 11.1 ± 1.34 µM, respectively. Moreover, in the series with pig liver esterase (PLE), the half-life at 0.45 mM was 0.3 h.

As to `Cc1cn([C@H]2C[C@H](N=[N+]=[N-])[C@@H](COP(=O)(O)OP(=O)(O)O)O2)c(=O)[nH]c1=O` [AZTDP, reference compound], the half-life at 0.86 mM in “in vitro [4]” (Plasma (Citrate) t 1/2) is 6.4 h; in the series “in vitro [4]” (Plasma (Heparin) t 1/2) it was 2.8 h; in “in vitro [4]” (t 1/2 in human plasma (over heparin and citrate plasma)), 2.8 to 6.4 h.
